In patent US8871753B2, “Macrocyclic compounds and their use as kinase inhibitors” (Incyte Corporation, priority 2008, dated 2014):
Where a name gives a salt, the structure may show the parent alone. Read-outs that look alike come from different tables or passages of the source.

Key:
Assay type in all cases: biochemical
[1] = target: T1, human JAK1 (a.a. 837-1142) (Homo sapiens, UniProt P23458); assay: In vitro JAK kinase assay (HTRF, phosphorylation of a biotinylated peptide), JAK1; conditions: read-out: JAK1 IC50
T1 construct: human JAK1 (a.a. 837-1142); His tag (N); made in house; host or cells: insect cells (baculovirus)
Method in brief: (§1)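 Kinase reactions ran at room temperature for 1 h with ATP matched per isoform (JAK1 90 μM, JAK2 30 μM, JAK3 3 μM). After an EDTA stop, the phosphorylated biotin-peptide was read by HTRF using Eu-Py20 and SA-APC after 40 min binding.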

[2] = target: T2, human JAK2 (a.a. 828-1132) (Homo sapiens, UniProt O60674); assay: In vitro JAK kinase assay (HTRF, phosphorylation of a biotinylated peptide), JAK2
T2 construct: JAK2 (a.a. 828-1132); His tag (N); made in house; host or cells: insect cells (baculovirus)
Method in brief: as §1

[3] = target: T3, human JAK3 (a.a. 781-1124) (Homo sapiens, UniProt P52333); assay: In vitro JAK kinase assay (HTRF, phosphorylation of a biotinylated peptide), JAK3
T3 construct: JAK3 (a.a. 781-1124); His tag (N); made in house; host or cells: insect cells (baculovirus)
Method in brief: as §1

[4] = target: TYK2 (Homo sapiens, UniProt P29597); assay: TYK2 kinase inhibition (Table A1)
[5] = target: T4, Recombinant Human Anaplastic Lymphoma Kinase (Homo sapiens, UniProt Q9UM73); assay: ALK HTRF kinase assay
T4 construct: purchased Invitrogen, Carlsbad, Calif
Method in brief: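 Recombinant human ALK phosphorylated a biotinylated synthetic peptide. Phosphotyrosine was detected by TR-FRET between a Eu-labelled anti-phosphotyrosine antibody and streptavidin-allophycocyanin. IC50 values came from fitting signal against inhibitor concentration to a four-parameter logistic equation with variable Hill slope.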

[6] = method AA1 (90 μM ATP) or AA2 (1000 μM ATP), not stated per value
[7] = method AA1 (30 μM ATP) or AA2 (1000 μM ATP), not stated per value
[8] = method AA1 (3 μM ATP) or AA2 (1000 μM ATP), not stated per value
[9] = compound at 500 nM or 1 mM, 90 μM ATP
[10] = compound at a concentration of 500 nM or 1 mM (not specified), cells shown as percentage
[11] = Table B1, cells without percent sign

T2 sequence (O60674 828-1132): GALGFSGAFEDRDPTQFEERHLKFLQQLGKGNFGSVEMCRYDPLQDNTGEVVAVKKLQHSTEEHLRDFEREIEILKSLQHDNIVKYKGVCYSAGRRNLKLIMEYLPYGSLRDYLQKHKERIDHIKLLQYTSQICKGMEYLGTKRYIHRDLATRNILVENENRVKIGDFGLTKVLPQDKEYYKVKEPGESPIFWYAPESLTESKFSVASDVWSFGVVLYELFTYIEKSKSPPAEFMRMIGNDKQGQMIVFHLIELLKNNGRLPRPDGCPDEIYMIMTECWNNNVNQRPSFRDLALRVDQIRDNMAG
T1 sequence (P23458 849-1154): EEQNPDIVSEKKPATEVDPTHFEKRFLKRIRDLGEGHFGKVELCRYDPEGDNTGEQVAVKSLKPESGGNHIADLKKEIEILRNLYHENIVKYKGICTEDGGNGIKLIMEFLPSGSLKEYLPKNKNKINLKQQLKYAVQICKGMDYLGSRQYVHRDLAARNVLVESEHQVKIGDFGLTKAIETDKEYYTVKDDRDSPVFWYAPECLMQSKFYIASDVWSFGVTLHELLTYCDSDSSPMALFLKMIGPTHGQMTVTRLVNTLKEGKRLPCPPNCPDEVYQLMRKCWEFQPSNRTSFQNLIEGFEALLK
T4 sequence (Q9UM73 19-1620): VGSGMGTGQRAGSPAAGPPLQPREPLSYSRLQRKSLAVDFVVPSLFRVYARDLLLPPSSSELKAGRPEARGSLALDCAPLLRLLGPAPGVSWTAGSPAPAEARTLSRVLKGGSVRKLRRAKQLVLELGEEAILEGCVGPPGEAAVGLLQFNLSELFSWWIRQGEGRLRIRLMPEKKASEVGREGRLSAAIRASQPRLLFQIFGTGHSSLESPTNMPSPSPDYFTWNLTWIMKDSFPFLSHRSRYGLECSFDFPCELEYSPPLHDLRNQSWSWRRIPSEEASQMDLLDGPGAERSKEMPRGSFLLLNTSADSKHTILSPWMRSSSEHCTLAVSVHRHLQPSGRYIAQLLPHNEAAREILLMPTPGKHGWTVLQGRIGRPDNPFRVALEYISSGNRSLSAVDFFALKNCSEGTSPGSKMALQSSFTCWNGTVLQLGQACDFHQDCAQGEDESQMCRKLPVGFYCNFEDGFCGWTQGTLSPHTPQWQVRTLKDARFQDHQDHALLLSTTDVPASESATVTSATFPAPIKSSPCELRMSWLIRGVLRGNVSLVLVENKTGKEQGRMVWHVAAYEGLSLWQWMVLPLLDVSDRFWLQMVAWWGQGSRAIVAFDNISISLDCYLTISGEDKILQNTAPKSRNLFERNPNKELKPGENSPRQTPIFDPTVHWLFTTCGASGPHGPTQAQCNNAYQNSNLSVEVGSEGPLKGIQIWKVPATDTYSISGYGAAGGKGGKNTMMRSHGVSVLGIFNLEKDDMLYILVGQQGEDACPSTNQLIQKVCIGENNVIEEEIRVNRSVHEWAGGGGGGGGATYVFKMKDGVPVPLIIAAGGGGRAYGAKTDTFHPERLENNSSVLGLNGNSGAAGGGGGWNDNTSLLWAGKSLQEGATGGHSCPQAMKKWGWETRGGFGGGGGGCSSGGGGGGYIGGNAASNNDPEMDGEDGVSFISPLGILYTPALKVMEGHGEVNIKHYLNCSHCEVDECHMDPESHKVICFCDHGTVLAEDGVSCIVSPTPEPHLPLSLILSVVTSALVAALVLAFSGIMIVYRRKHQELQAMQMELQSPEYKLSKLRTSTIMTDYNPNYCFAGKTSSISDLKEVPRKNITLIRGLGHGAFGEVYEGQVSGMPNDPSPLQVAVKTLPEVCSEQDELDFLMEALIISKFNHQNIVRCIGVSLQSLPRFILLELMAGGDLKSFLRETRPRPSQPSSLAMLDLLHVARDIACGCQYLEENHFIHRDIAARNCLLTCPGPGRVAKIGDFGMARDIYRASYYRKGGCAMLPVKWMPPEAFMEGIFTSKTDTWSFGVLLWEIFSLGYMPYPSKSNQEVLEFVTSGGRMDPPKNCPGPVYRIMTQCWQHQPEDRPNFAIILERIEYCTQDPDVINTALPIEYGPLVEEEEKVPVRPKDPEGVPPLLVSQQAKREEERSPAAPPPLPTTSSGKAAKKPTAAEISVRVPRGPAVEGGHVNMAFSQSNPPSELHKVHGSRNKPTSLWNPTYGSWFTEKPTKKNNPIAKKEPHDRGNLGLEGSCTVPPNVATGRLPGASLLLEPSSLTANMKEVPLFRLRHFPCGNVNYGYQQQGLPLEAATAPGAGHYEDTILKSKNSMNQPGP
T3 sequence (P52333 781-1124): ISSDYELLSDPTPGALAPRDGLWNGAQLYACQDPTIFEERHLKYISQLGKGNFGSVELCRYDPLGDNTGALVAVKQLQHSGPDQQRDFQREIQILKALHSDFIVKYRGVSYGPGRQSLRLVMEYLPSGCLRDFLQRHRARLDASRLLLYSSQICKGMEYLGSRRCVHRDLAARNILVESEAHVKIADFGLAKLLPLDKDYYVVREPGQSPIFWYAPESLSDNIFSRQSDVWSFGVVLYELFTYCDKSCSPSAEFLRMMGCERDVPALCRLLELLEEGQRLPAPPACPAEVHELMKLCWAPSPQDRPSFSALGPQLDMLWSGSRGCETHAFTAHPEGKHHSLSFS
TYK2, sequence (P29597 whole entry): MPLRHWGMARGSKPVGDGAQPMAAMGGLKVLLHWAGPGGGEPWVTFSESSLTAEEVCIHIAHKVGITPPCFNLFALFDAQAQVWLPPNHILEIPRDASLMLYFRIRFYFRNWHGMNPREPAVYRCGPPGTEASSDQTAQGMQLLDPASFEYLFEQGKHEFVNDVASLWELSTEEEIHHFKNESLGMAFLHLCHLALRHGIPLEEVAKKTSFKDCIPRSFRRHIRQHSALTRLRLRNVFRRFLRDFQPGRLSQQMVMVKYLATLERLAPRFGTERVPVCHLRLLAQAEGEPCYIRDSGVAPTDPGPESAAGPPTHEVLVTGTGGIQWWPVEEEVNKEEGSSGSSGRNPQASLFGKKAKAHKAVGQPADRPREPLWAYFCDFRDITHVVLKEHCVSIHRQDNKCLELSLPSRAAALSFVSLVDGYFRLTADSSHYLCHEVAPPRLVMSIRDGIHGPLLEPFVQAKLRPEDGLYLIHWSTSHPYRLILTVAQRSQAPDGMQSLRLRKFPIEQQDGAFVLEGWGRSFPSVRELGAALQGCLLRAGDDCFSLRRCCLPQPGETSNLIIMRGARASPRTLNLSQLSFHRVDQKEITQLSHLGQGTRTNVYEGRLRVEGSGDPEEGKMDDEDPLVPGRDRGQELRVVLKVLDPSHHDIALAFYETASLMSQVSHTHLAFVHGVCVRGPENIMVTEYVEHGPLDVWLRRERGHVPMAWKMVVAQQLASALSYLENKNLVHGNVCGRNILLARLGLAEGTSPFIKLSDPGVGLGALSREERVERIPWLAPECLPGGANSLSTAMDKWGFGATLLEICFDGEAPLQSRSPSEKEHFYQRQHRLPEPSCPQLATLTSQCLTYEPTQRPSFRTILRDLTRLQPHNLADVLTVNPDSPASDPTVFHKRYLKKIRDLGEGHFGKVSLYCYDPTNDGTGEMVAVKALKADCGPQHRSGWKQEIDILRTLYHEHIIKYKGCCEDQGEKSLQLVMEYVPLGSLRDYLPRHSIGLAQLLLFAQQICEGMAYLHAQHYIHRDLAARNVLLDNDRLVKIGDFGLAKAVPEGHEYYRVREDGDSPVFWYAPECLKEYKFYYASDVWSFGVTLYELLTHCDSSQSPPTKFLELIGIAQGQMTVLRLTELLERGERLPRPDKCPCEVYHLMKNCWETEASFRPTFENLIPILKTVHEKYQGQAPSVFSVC

IC50 ([1]; Table B1)	IC50 ([2]; Table B1)	IC50 ([3]; Table B1)	IC50 ([4]; Table B1)	ALK % of inhibition at a concentration of 500 nM or 1 mM [5, 10]	SMILES	other results
–	–	–	–	–	Clc1cnc2nc1Nc1cccc(c1)SSc1cccc(c1)N2 [Example D12, 6-Chloro-14,15-dithia-2,4,8,22-tetraazatetracyclo[14.3.1.1(3,7).1(9,13)]docosa-1(20),3(22),4,6,9(21),10,12,16,18-nonaene trifluoroacetate]	IC50 ([1]; Table D1): 178 nM; IC50 ([2]; Table D1): 290 nM; IC50 ([3]; Table D1): 369 nM; IC50 ([4]; Table D1): 324 nM; IC50 ([5]; Table D1, 90 μM ATP): > 10000 nM
–	–	–	–	–	Clc1cnc2nc1Nc1cccc(c1)OCCc1cc(cc(-c3ccccc3)c1)N2 [Example D28, 6-Chloro-19-phenyl-14-oxa-2,4,8,23-tetraazatetracyclo[15.3.1.1(3,7).1(9,13)]tricosa-1(21),3(23),4,6,9(22),10,12,17,19-nonaene trifluoroacetate]	IC50 ([1]; Table D1): 6.2 nM; IC50 ([2]; Table D1): 5.2 nM; IC50 ([3]; Table D1): 53 nM; IC50 ([4]; Table D1): 25 nM; IC50 ([5]; Table D1, 90 μM ATP): 525 nM
–	–	–	–	–	CCNC(=O)N1CC[C@@H](C(=O)Nc2ccc3cc2CCc2cccc(c2)Nc2ncc(Cl)c(n2)N3)C1 [Example A53, (3R)—N(3)-[6-Chloro-2,4,8,22-tetraazatetracyclo[14.3.1.1(3,7).1(9,13)]docosa-1(20),3(22),4,6,9(21),10,12,16,18-nonaen-12-yl]-N(1)-ethylpyrrolidine-1,3-dicarboxamide trifluoroacetate]	IC50 [1, 6]: 6.1 nM; IC50 [2, 7]: 1.2 nM; IC50 [3, 8]: 3.2 nM; IC50 [4]: 14 nM; ALK % of inhibition at a concentration of 500 nM or 1 mM [5, 9]: 35%
1.6 nM	1.1 nM	8.5 nM	2.6 nM	58%	CC(=O)Nc1ccc(S(=O)(=O)Nc2ccc3cc2CCc2cccc(c2)Nc2ncc(Cl)c(n2)N3)cc1 [Example B161, N-[4-({[6-Chloro-2,4,8,22-tetraazatetracyclo[14.3.1.1(3,7).1(9,13)]docosa-1(20),3(22),4,6,9(21),10,12,16,18-nonaen-12-yl]amino}sulfonyl)phenyl]acetamide trifluoroacetate]	–
2.8 nM	12 nM	67 nM	17 nM	21%	CC(=O)N1CC[C@H](NC(=O)Nc2ccc3cc2CCc2cccc(c2)Nc2ncc(Cl)c(n2)N3)C1 [Example B168, N-[(3S)-1-Acetylpyrrolidin-3-yl]-N′-[6-chloro-2,4,8,22-tetraazatetracyclo[14.3.1.1(3,7).1(9,13)]docosa-1(20),3(22),4,6,9(21),10,12,16,18-nonaen-12-yl]urea trifluoroacetate]	–
–	–	–	–	–	O=C(Nc1ccc2cc1CCc1cccc(c1)Nc1ncc(Cl)c(n1)N2)C1CCCN(C(=O)c2ccccc2)C1 (stereo not shown) [Example A48, 1-Benzoyl-N-[6-chloro-2,4,8,22-tetraazatetracyclo[14.3.1.1(3,7).1(9,13)]docosa-1(20),3(22),4,6,9(21),10,12,16,18-nonaen-12-yl]piperidine-3-carboxamide trifluoroacetate]	IC50 [1, 6]: 27 nM; IC50 [2, 7]: 13 nM; IC50 [3, 8]: 56 nM; IC50 [4]: 92 nM; ALK % of inhibition at a concentration of 500 nM or 1 mM [5, 9]: 28%
–	–	–	–	–	Cc1ccc(NC(=O)N2CCC(CC(=O)Nc3ccc4cc3CCc3cncc(c3)Nc3ncc(Cl)c(n3)N4)CC2)cc1 [Example A151, 4-(2-{[6-Chloro-2,4,8,18,22-pentaazatetracyclo[14.3.1.1(3,7).1(9,13)]docosa-1(20),3(22),4,6,9(21),10,12,16,18-nonaen-12-yl]amino}-2-oxoethyl)-N-(4-methylphenyl)piperidine-1-carboxamide bis(trifluoroacetate)]	IC50 [1, 6]: 0.3 nM; IC50 [2, 7]: 1.4 nM; IC50 [3, 8]: > 100 nM; IC50 [4]: 3.8 nM; ALK % of inhibition at a concentration of 500 nM or 1 mM [5, 9]: 45%
14 nM	25 nM	216 nM	54 nM	27%	Cc1oncc1C(=O)N1CCC(NC(=O)Nc2ccc3cc2CCc2cccc(c2)Nc2ncc(Cl)c(n2)N3)CC1 [Example B264, N-[6-chloro-2,4,8,22-tetraazatetracyclo[14.3.1.1(3,7).1(9,13)]docosa-1(20),3(22),4,6,9(21),10,12,16,18-nonaen-12-yl]-N′-{1-[(5-methylisoxazol-4-yl)carbonyl]piperidin-4-yl}urea trifluoroacetate]	–
1.7 nM	0.75 nM	7 nM	3.9 nM	–	O=C(Nc1ccc2cc1CCc1cccc(c1)Nc1ncc(Cl)c(n1)N2)c1cccc(Cl)c1 [Example B42, 3-Chloro-N-[6-chloro-2,4,8,22-tetraazatetracyclo[14.3.1.1(3,7).1(9,13)]docosa-1(20),3(22),4,6,9(21),10,12,16,18-nonaen-12-yl]benzamide hydrochloride]	IC50 [5, 11]: 310 nM
4.7 nM	30 nM	80 nM	30 nM	17%	O=C(Nc1ccc2cc1CCc1cccc(c1)Nc1ncc(Cl)c(n1)N2)c1ccc(C(F)(F)F)cc1 [Example B75, N-[6-Chloro-2,4,8,22-tetraazatetracyclo[14.3.1.1(3,7).1(9,13)]docosa-1(20), 3(22),4,6,9(21),10,12,16,18-nonaen-12-yl]-4-(trifluoromethyl)benzamide trifluoroacetate]	–
–	–	–	–	–	O=C(CC1CCN(C(=O)c2ccncc2)CC1)Nc1ccc2cc1CCc1cncc(c1)Nc1ncc(Cl)c(n1)N2 [Example A189, N-[6-Chloro-2,4,8,18,22-pentaazatetracyclo[14.3.1.1(3,7).1(9,13)]docosa-1(20),3(22),4,6,9(21),10,12,16,18-nonaen-12-yl]-2-(1-isonicotinoylpiperidin-4-yl)acetamide tris(trifluoroacetate)]	IC50 [1, 6]: 116 nM; IC50 [2, 7]: > 200 nM; IC50 [3, 8]: > 200 nM; IC50 [4]: > 200 nM; ALK % of inhibition at a concentration of 500 nM or 1 mM [5, 9]: 21%
6.4 nM	8.9 nM	35 nM	24 nM	21%	CN(C)C(=O)Nc1ccc2cc1CCc1cccc(c1)Nc1ncc(Cl)c(n1)N2 [Example B239, N′-[6-Chloro-2,4,8,22-tetraazatetracyclo[14.3.1.1(3,7).1(9,13)]docosa-1(20),3(22),4,6,9(21),10,12,16,18-nonaen-12-yl]-N,N-dimethylurea trifluoroacetate]	–
6.5 nM	11 nM	1170 nM	34 nM	22%	Cc1ccnc(Nc2ccc3cc2CCc2cccc(c2)Nc2ncc(Cl)c(n2)N3)n1 [Example B276, 6-Chloro-N-(4-methylpyrimidin-2-yl)-2,4,8,22-tetraazatetracyclo[14.3.1.1(3,7).1(9,13)]docosa-1(20),3(22),4,6,9(21),10,12,16,18-nonaen-12-amine bis(trifluoroacetate)]	–
15 nM	150 nM	1400 nM	2300 nM	24%	NC1CCN(c2ccnc(Nc3ccc4cc3CCc3cccc(c3)Nc3ncc(Cl)c(n3)N4)n2)CC1 [Example B281, N-[4-(4-Aminopiperidin-1-yl)pyrimidin-2-yl]-6-chloro-2,4,8,22-tetraazatetracyclo[14.3.1.1(3,7).1(9,13)]docosa-1(20),3(22),4,6,9(21),10,12,16,18-nonaen-12-amine tris(trifluoroacetate)]	–
30 nM	180 nM	> 400 nM	82 nM	74%	COc1ccc(N2CCN(C(=O)Nc3ccc4cc3CCc3cncc(c3)Nc3ncc(Cl)c(n3)N4)CC2)cc1 [Example B299, N-[6-Chloro-2,4,8,18,22-pentaazatetracyclo[14.3.1.1(3,7).1(9,13)]docosa-1(20),3(22),4,6,9(21),10,12,16,18-nonaen-12-yl]-4-(4-methoxyphenyl)piperazine-1-carboxamide tris(trifluoroacetate)]	–
–	–	–	–	–	Cn1cncc1C(=O)N1CCC(CC(=O)Nc2ccc3cc2CCc2cncc(c2)Nc2ncc(Cl)c(n2)N3)CC1 [Example A134, N-[6-Chloro-2,4,8,18,22-pentaazatetracyclo[14.3.1.1(3,7).1(9,13)]docosa-1(20),3(22),4,6,9(21),10,12,16,18-nonaen-12-yl]-2-{1-[(1-methyl-1H-imidazol-5yl)carbonyl]piperidin-4-yl}acetamide bis(trifluoroacetate)]	IC50 [1, 6]: 6.2 nM; IC50 [2, 7]: 18 nM; IC50 [3, 8]: 226 nM; IC50 [4]: 25 nM; ALK % of inhibition at a concentration of 500 nM or 1 mM [5, 9]: 30%
3.4 nM	1.8 nM	8.8 nM	5.9 nM	–	N#Cc1cccc(C(=O)Nc2ccc3cc2CCc2cccc(c2)Nc2ncc(Cl)c(n2)N3)c1 [Example B65, N-[6-Chloro-2,4,8,22-tetraazatetracyclo[14.3.1.1(3,7).1(9,13)]docosa-1(20), 3(22),4,6,9(21),10,12,16,18-nonaen-12-yl]-3-cyanobenzamide trifluoroacetate]	IC50 [5, 11]: 290 nM
